Test results: patent US12258397B2 (Seattle Children's Hospital, priority 2014, dated 2025)
Values joined by “and” are separate entries in the source; they are usually repeats but may differ in a detail not shown here. Identical values can stand only once.

Assays:
[1] = system: H9 cells; assay: Multiplexed gene integration of three fluorescent protein transposons with MTX step selection, flow cytometry; format: cell-based, human; conditions: for cells expressing triple transgenes: 200 nM MTX 1 week
Experimental: (§1) H9 cells were cultured in DMEM with 10% FBS. The optimized nucleofection protocol for H9 cells (Lonza) was followed (program X-001, Nucleofector Kit V). Per nucleofection, 1×10^6 cells were used with varying amounts of MC DNA. Cells were grown for a week after nucleofection to achieve stable transfection.
(§2) Live cells were selected based on propidium iodide exclusion by adding propidium iodide in the flow cytometry buffer to 2 μg/ml. Flow cytometry analysis was carried out on a MACSQuant Analyzer (Miltenyi Biotec) and LSRII (BD Biosciences). Collected data was analyzed with FlowJo software. Appropriate negative controls (untransfected H9 cells with and without propidium iodide staining, as well as cells transfected with single genes for GFP, BFP, and mCherry) were used for compensation and gating. A Becton Dickinson FACSAria II was used for cell sorting. Part of flow cytometry work was conducted at the UW Immunology Flow Cytometry Facility.
H9 cells were nucleofected with three minicircles containing three different reporter genes (maxGFP, mCherry, and BFP) in transposon cassettes and the SB100X transposase minicircle. Stably-transduced cells were then selected for 7 days with 200 nM and cell population assessed by flow cytometry analysis. […] Initial transfection efficiency assessed 24 hours after nucleofection, was 68% (FIG. 6A). The stably transduced population was 37±1.4%, reflecting 54% integration efficiency. Of this population, 19±0.6% expressed two or three different fluorescent proteins. […] Cell viability rebounded to ˜70% during the second round of selection due to further selection for overexpression of the DHFRdm gene.

[2] = system: H9 cells; assay: Transposon copy number by qPCR in MTX-selected H9 cells; format: cell-based, human
Experimental: Genomic DNA was extracted with Puregene Kit A according to the manufacturer's instructions (Qiagen), and qPCR was performed using a 7300 Real-Time PCR System (Applied Biosystems) using Universal SYBR Green Supermix (BioRad). Primers for qPCR were designed using Primer3 software: […]
MaxGFP primers are specific for the maxGFP gene in the transposon. Standard curves were generated using genomic DNA of a H9 clone with a single insertion of transposon (“gold standard”) obtained by limiting dilution method. Copy number was calculated using the […] (Schmittgen, T. D. and Livak, K. J. (2008), incorporated in its entirety herein). Characterization of SBTS Integration Distribution.
Plates were incubated for 2-3 weeks, after which clonal populations were moved to larger plates and expanded. GFP expression was confirmed by flow cytometry. Relative RT-qPCR analysis was performed using DNA of 60 individual clones in order to determine transposon copy number.
First, a “gold standard” clone with a single copy of integrated transposon was generated by limiting dilution method. […] A trend of increasing average transposon copy number with increasing selection pressure was observed. […] Statistical difference was assessed by Student's t-test.
Sixty clones were generated by limiting dilution method, GFP expression confirmed by flow cytometry, genomic DNA isolated, and the number of GFP genes per haploid genome analyzed by RT-PCR. Most clones (˜65%) contained multiple copies of GFP.

[3] = system: cells transfected with GFP:SB; assay: GFP expression in cells transfected with GFP:SB (SB100X DNA or RNA) under MTX; format: cell-based; conditions: cells transfected with 5 ug of GFP:SB; 50 uM and 100 uM MTX tested
Experimental: Cells were electroporated with SB100X (DNA or RNA) or transposons carrying genes for GFP, CARS, or GFP/mCherry/BFP. FIG. 20A relates to lymphocytes; FIG. 20B relates to single cells; FIG. 20C relates to live cells; FIG. 20D relates to GFP; FIG. 20E relates to a time-line.
As shown in the figure are several scattergrams of the cells that are transfected with GFP gene carrying transposons. Several samples of cells are transfected with DNA comprising a gene for GFP expression (2.5 ug and 5 ug), mcGFP only, and RNA (1 ug and 3 ug).
FIGS. 24A-24B relate to expression of GFP in cells transfected with GFP:SB. […] FIG. 24B relates to the experiment was performed using RNA, however, DNA has a higher efficiency for leading to expression of the protein.

[4] = system: H9 cells; assay: MTX selection and transgene persistence in H9 cells stably transfected with T3/GFP-T2A-DHFRdm transposon, flow cytometry; format: cell-based, human
Experimental: as §1, §2

[5] = 60 clones from population selected with 200 nM MTX

CN(Cc1cnc2nc(N)nc(N)c2n1)c1ccc(C(=O)N[C@@H](CCC(=O)O)C(=O)O)cc1 [MTX, methotrexate]
cells expressing triple transgenes ([1]; then 500 nM MTX additional week): 38.5±1.0%
cells expressing triple transgenes ([1]; then 1000 nM MTX additional week): 53.1±0.3%
cell viability ([1]; during the second round of selection): ~70%
cells expressing three transgene products ([1]; two-step selection, two successive MTX selection rounds): 50%
average number of integration events in clones [2, 5]: 1.8 and 1.78±0.69
clones containing multiple copies of GFP [2, 5]: ~65%
average integration events (transposon copy number per human haploid genome) ([2]; cell population selected with 200 nM MTX, RT-qPCR): 2.1±0.45
MTX concentration at which cells express GFP optimally [3]: 50 µM
decrease in mean GFP expression by 4 weeks post-MTX withdrawal ([4]; 50 nM MTX selection): 28%
decrease in mean GFP expression by 4 weeks post-MTX withdrawal ([4]; 100 nM MTX selection): 27%
GFP+ population four weeks post-MTX withdrawal ([4]; 200 nM MTX for 2 weeks): 97%
decrease in mean GFP expression by 4 weeks post-MTX withdrawal ([4]; 200 nM MTX selection): 21%
GFP+ population four weeks post-MTX withdrawal ([4]; all populations (50, 100, 200 nM MTX for 2 weeks)): > 90%
GFP+ cells ([4]; by 7 days post-selection, all conditions (50 to 200 nM MTX)): > 94%
